molecular target: T1, recombinant hRIPK2 protein (kinase domain aa 1-299-His-tagged) (Homo sapiens, UniProt O43353); assay: RIPK2 AlphaLISA assay (displacement of bead-bound CZC-8004 from hRIPK2); type: binding; details: recombinant hRIPK2 kinase domain 10 nM, 2 h at 23° C.
T1 construct: kinase domain aa 1-299-His-tagged; purchased Life Technologies PR7829A
From the text: RIPK2 AlphaLISA® Assay (Amplified Luminescent Proximity Homogeneous Assay)
A non-specific kinase inhibitor (CZC-8004 Cayman #916603-07-1) bound to an acceptor bead (#6772001 PerkinElmer) was mixed to the recombinant hRIPK2 protein (kinase domain aa 1-299-His-tagged—Life Technologies PR7829A) and a Ni2+-tagged donor beads (#AS101D PerkinElmer). In the presence of an inhibitor, the compound beads displacement from hRIPK2 was followed by signal loss. In a 384-well ProxiPlate@ (Perkin Elmer, 6008280) add:
2 μL RIPK2 inhibitor (in DMSO 0.8%).
2 μL human recombinant RIPK2 (10 nM diluted in AlphaLISA buffer 1×).
4 μL Mix of […] 1/1000 in AlphaLISA buffer 1×.
Homogenize using a microtiter plate shaker and incubate for 2 h at 23° C.
Read using EnVision®-Alpha Reader (PerkinElmer) according to manufacturer specifications.

T1 sequence (O43353 1-299): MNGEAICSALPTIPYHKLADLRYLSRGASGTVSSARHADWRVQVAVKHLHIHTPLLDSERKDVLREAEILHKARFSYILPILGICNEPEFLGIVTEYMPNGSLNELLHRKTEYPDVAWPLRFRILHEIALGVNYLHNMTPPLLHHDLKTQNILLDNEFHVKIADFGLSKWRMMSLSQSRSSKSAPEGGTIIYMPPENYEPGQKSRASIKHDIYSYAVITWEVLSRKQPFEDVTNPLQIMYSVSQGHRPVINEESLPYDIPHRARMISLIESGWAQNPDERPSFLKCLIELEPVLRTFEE

Row | SMILES | IC50 [nM]
1 | CO[C@@H]1C[C@H]2COc3ccn4ncc(c4n3)-c3cc(cc(-n4nc(C)cc4C)c3)NCCN2C1=O [Example 83, (12R,14S)-4-(3,5-dimethyl-1H-pyrazol-1-yl)-12-methoxy-16-oxa-7,10,20,21,24-pentaazapentacyclo[15.5.2.1^2,6.0^1°,^14.0^2°,^23]pentacosa-1(23),2(25),3,5,17(24),18,21-heptaen-11-one] | < 10
2 | CCOc1cc2cc(c1)-c1cnn3ccc(nc13)OC[C@@H]1C[C@@H](OCCOC)C(=O)N1CCN2 (racemic) [Example 112, (12R,14S)-4-ethoxy-12-(2-methoxyethoxy)-16-oxa-7,10,20,21,24-pentaazapentacyclo[15.5.2.1^2,6.0^10,^14.0^20,^23]pentacosa-1(23),2(25),3,5,17(24),18,21-heptaen-11-one] | < 10
3 | COCCO[C@@H]1C[C@H]2COc3ccn4ncc(c4n3)-c3cc(O)cc(c3)NCCN2C1=O [Example 97, (12R,14S)-4-hydroxy-12-(2-methoxyethoxy)-16-oxa-7,10,20,21,24-pentaazapentacyclo[15.5.2. 1^2,6.0^10,^14.0^20,^23]pentacosa-1(23),2,4,6(25),17(24),18,21-heptaen-11-one] | < 10
4 | [2H]C([2H])([2H])Oc1cn2ncc3c2nc1OC[C@@H]1C[C@@H](OC)C(=O)N1CCNc1cc(F)cc-3c1 [Example 92, (12R,14S)-4-fluoro-18-(^2H3)methoxy-12-methoxy-16-oxa-7,10,20,21,24-pentaazapentacyclo[15.5.2.1^2,6.0^1°,^14.0^2°,^23]pentacosa-1(23),2(25),3,5,17(24),18,21-heptaen-11-one] | < 10
5 | CO[C@@H]1C[C@H]2COc3ccn4ncc(c4n3)-c3cc(cc(OCC4CC4)c3)NCCN2C1=O [Example 45, (12R,14S)-4-(cyclopropylmethoxy)-12-methoxy-16-oxa-7,10,20,21,24-pentaazapentacyclo[15.5.2.1^2,6.0^10,^14.0^20,^23]pentacosa-1(23),2,4,6(25),17(24),18,21-heptaen-11-one] | 100 to 11000
6 | CCOC(=O)N1CCN2C(=O)[C@H](OC)C[C@H]2COc2ccn3ncc(c3n2)-c2cc(F)cc1c2 [Example 73, Ethyl (12R,14S)-4-fluoro-12-methoxy-11-oxo-16-oxa-7,10,20,21,24-pentaazapentacyclo[15.5.2.1^2,6.0^1°,^14.0^2°,^23]pentacosa-1(23),2,4,6(25),17(24),18,21-heptaene-7-carboxylate] | 10 to 100
7 | COCc1cn2ncc3c2nc1OC[C@@H]1C[C@@H](OC)C(=O)N1CCNc1cc(F)cc-3c1 [Example 33, (12R,14S)-4-fluoro-12-methoxy-18-(methoxymethyl)-16-oxa-7,10,20,21,24-pentaazapentacyclo[15.5.2.1^2,6.0^10,^14.0^20,^23]pentacosa-1(23),2(25),3,5,17(24),18,21-heptaen-11-one] | < 10
8 | O=C1[C@H](OCC2CC2)C[C@H]2COc3ccn4ncc(c4n3)-c3cc(F)cc(c3)NCCN12 [Example 11, (12R,14S)-12-(cyclopropylmethoxy)-4-fluoro-16-oxa-7,10,20,21,24-pentaazapentacyclo[15.5.2.1^2,6.0^10,^14.0^20,^23]pentacosa-1(23),2(25),3,5,17(24),18,21-heptaen-11-one] | < 10
9 | CO[C@@H]1C[C@H]2COc3ccn4ncc(c4n3)-c3cc(cc(C(=O)N(C)CC4CC4)c3)NCCN2C1=O [Example 61, (12R,14S)-N-(cyclopropylmethyl)-12-methoxy-N-methyl-11-oxo-16-oxa-7,10,20,21,24-pentaazapentacyclo[15.5.2.1^2,6.0^10,^14.0^20,^23]pentacosa-1(23),2,4,6(25),17(24),18,21-heptaene-4-carboxamide] | 100 to 11000
10 | CCO[C@@H]1C[C@H]2COc3nc4c(cnn4cc3OC)-c3cc(cc(OC)c3)NCCN2C1=O [Example 132, (12R,14S)-12-ethoxy-4,18-dimethoxy-16-oxa-7,10,20,21,24-pentaazapentacyclo[15.5.2. 1^2,6.0^10,^14.0^20,^23]pentacosa-1(23),2,4,6(25),17(24),18,21-heptaen-11-one] | < 10

Source: patent US12630563B2, “Macrocyclic RIP2-kinase inhibitors” (Oncodesign S.A., priority 2020, dated 2026)
